# Assays:
# Type in all cases: cell-based
# motilin receptor = molecular target: T1, motilin receptor (Homo sapiens, UniProt O43193); assay: Motilin agonist activity (activation of the motilin receptor)
# T1 construct: expressed in transfected cells
# Protocol: Compounds of this invention were tested for motilin agonist activity, following the procedure of Carreras et al., Anal. Biochem., 300, 146-151 (2002), the disclosure of which is incorporated herein by reference.
# [1] = system: Streptococcus pneumoniae ATCC 70071; assay: In vitro antibacterial activity (MIC); settings: ATCC70071, erythromycin sensitive strain ATCC 70071
# Protocol: (§1) Compounds of this invention were tested for in vitro activity against three erythromycin sensitive strains of Streptococcus pneumoniae (ATCC 6301, ATCC 700671, and ATCC 49619), using methods known in the microbiological art.
# [2] = system: Streptococcus pneumoniae ATCC 6301; assay: In vitro antibacterial activity (MIC); settings: ATCC6301, erythromycin sensitive strain ATCC 6301
# Protocol: as §1
# [3] = system: Streptococcus pneumoniae ATCC 49619; assay: In vitro antibacterial activity (MIC); settings: ATCC49619, erythromycin sensitive strain ATCC 49619
# Protocol: as §1
# T1 sequence (O43193 whole entry): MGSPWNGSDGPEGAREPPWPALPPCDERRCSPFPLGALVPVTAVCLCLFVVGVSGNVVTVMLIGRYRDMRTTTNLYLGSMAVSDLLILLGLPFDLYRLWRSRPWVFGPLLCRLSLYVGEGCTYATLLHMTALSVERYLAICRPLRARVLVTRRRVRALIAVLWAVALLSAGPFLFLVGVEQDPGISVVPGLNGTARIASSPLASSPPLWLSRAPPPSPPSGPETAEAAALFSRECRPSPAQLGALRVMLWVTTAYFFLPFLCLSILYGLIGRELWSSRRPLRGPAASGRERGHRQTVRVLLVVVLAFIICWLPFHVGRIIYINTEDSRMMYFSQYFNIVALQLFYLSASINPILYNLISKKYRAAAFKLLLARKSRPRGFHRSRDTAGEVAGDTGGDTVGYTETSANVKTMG
EC50 (motilin receptor),MIC [1],MIC [2],MIC [3],SMILES
1.2 µM,0.78 µg/mL,0.049 µg/mL,0.098 µg/mL,"CC[C@H]1OC(=O)[C@H](C)[C@@H](O[C@H]2C[C@@](C)(OC)[C@@H](O)[C@H](C)O2)[C@H](C)[C@@H](O[C@@H]2O[C@H](C)C[C@H](N(C)C)[C@H]2O)C(C)(O)C[C@@H](C)C(=O)[C@H](C)C[C@H]1C (stereo partly drawn) [11-Deoxyerythromycin B, reference compound]"
–,0.049 µg/mL,0.025 µg/mL,0.049 µg/mL,"CC[C@H]1OC(=O)[C@H](C)[C@@H](O[C@H]2C[C@@](C)(OC)[C@@H](O)[C@H](C)O2)[C@H](C)[C@@H](O[C@@H]2O[C@H](C)C[C@H](N(C)C)[C@H]2O)[C@](C)(O)C[C@@H](C)C(=O)[C@H](C)[C@@H](O)[C@]1(C)O [Erythromycin A, reference compound]"
0.7 µM,200 µg/mL,12.5 µg/mL,6.25 µg/mL,"CC[C@H]1OC(=O)[C@H](C)[C@@H](O[C@H]2C[C@@](C)(OC)[C@@H](O)[C@H](C)O2)[C@H](C)[C@@H](O[C@@H]2O[C@H](C)C[C@H](N(C)C(C)C)[C@H]2O)C(C)(O)C[C@@H](C)C(=O)[C@H](C)C[C@H]1C (stereo partly drawn) [IVa, N-desmethyl-N-isopropyl-11-deoxyerythromycin B]"
2.1 µM,> 200 µg/mL,200 µg/mL,200 µg/mL,"CC[C@H]1OC(=O)[C@H](C)[C@@H](O[C@H]2C[C@@](C)(OC)[C@@H](O)[C@H](C)O2)[C@H](C)[C@@H](O[C@@H]2O[C@H](C)C[C@H](N(C)CC(C)C)[C@H]2O)C(C)(O)C[C@@H](C)C(=O)[C@H](C)C[C@H]1C (stereo partly drawn) [IVb, N-desmethyl-N-isobutyl-11-deoxyerythromycin B]"
